Source: ChEMBL document CHEMBL1201862, “PubChem BioAssay data set” (2004)
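Tested at 5 concentrations; 48 h exposure; 96-well plates; endpoints linearly interpolated, else capped at highest concentration. At the GI50, growth is halved.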 Calls of active or inactive are those of the source. Rule as the data show it: active = GI50 up to about 1.1 µM and inactive = higher.

How the values were obtained:
Experiment in all cases: DTP human tumour cell line panel, 48 h
[1] = tested on: A549
[2] = tested on: CAKI-1
[3] = tested on: CCRF-CEM
[4] = tested on: EKVX
[5] = tested on: HOP-62
[6] = tested on: HOP-92
[7] = tested on: LOX IMVI
[8] = tested on: MCF7
[9] = tested on: NCI-H522
[10] = tested on: NCI/ADR-RES
[11] = tested on: OVCAR-5
[12] = tested on: RPMI-8226
[13] = tested on: SK-MEL-5
[14] = tested on: SNB-75
[15] = tested on: SW-620
[16] = tested on: T47D
[17] = tested on: TK-10
[18] = tested on: UACC-257
[19] = tested on: M14
[20] = tested on: SNB-19

Compound | GI50 [1] | GI50 [2] | GI50 [3] | GI50 [4] | GI50 [5] | GI50 [6] | GI50 [7] | GI50 [8] | GI50 [9] | GI50 [10] | GI50 [11] | GI50 [12] | GI50 [13] | GI50 [14] | GI50 [15] | GI50 [16] | GI50 [17] | GI50 [18] | GI50 [19] | GI50 [20]
CC(=O)OC[C@H]1On2nnnc2[C@H](OC(C)=O)[C@@H](OC(C)=O)[C@@H]1OC(C)=O | > 100 µM (inactive) | > 100 µM (inactive) | > 100 µM (inactive) | > 100 µM (inactive) | > 100 µM (inactive) | > 100 µM (inactive) | > 100 µM (inactive) | > 100 µM (inactive) | > 100 µM (inactive) | 91.8 µM (inactive) | > 100 µM (inactive) | > 100 µM (inactive) | > 100 µM (inactive) | > 100 µM (inactive) | > 100 µM (inactive) | > 100 µM (inactive) | 31 µM (inactive) | > 100 µM (inactive) |  | 
CN(C)CCNC(=O)c1cccc2c(NCCN(C)C)c3ccccc3nc12 | 1.91 µM (inactive) | 2.69 µM (inactive) | 2 µM (inactive) | 2.99 µM (inactive) | 3.19 µM (inactive) | 2.16 µM (inactive) | 1.55 µM (inactive) | 2.36 µM (inactive) | 1.37 µM (inactive) | 7.78 µM (inactive) | 2.89 µM (inactive) | 2.41 µM (inactive) | 3.48 µM (inactive) | 5.06 µM (inactive) | 2.33 µM (inactive) | 14.6 µM (inactive) | 3.24 µM (inactive) | 5.14 µM (inactive) | 7.1 µM (inactive) | 3.24 µM (inactive)
c1c[nH]c(-c2ccc(-c3ccc[nH]3)c3nsnc23)c1 | > 47.5 µM (inactive) | > 66.7 µM (inactive) | 15.4 µM (inactive) | 0.0426 µM (active) | 28.5 µM (inactive) | 31.8 µM (inactive) | > 100 µM (inactive) | 0.0877 µM (active) | 53.6 µM (inactive) | > 51.6 µM (inactive) | 1.14 µM (inactive) | > 27.4 µM (inactive) | > 42.9 µM (inactive) | 2.65 µM (inactive) | > 52.4 µM (inactive) | 0.0336 µM (active) | 0.182 µM (active) | > 61 µM (inactive) | > 46.9 µM (inactive) | > 67.6 µM (inactive)
O=C1c2c(Br)sc(Br)c2[C@H]2OC(=S)N[C@@H]12 | 17.1 µM (inactive) | 3.25 µM (inactive) | 0.624 µM (active) | 4.89 µM (inactive) | 13.5 µM (inactive) | 11.9 µM (inactive) | 3.02 µM (inactive) | 9.38 µM (inactive) | 1.69 µM (inactive) | 8.51 µM (inactive) | 17.1 µM (inactive) | 4.68 µM (inactive) | 11 µM (inactive) | 16.1 µM (inactive) | 2.43 µM (inactive) | 12.1 µM (inactive) | 20.2 µM (inactive) | 7.08 µM (inactive) | 1.95 µM (inactive) | 15.2 µM (inactive)
c1csc(-c2csc(-c3ccsc3)c2)c1 | 99.5 µM (inactive) | > 100 µM (inactive) | > 100 µM (inactive) | > 65.8 µM (inactive) | > 100 µM (inactive) | > 100 µM (inactive) | > 100 µM (inactive) | > 46.3 µM (inactive) | 61.5 µM (inactive) | > 100 µM (inactive) | > 100 µM (inactive) | > 100 µM (inactive) | > 100 µM (inactive) | > 92 µM (inactive) | > 100 µM (inactive) | > 45.1 µM (inactive) | > 100 µM (inactive) | > 100 µM (inactive) | > 75.9 µM (inactive) | > 100 µM (inactive)
COc1ccccc1NCc1cccc2c(=O)c3ccc(Cl)cc3oc12 | 78.3 µM (inactive) | > 100 µM (inactive) | 48 µM (inactive) | > 100 µM (inactive) | > 100 µM (inactive) | 25.7 µM (inactive) | > 100 µM (inactive) | 28.1 µM (inactive) | > 100 µM (inactive) | > 100 µM (inactive) | > 100 µM (inactive) | 39.3 µM (inactive) | > 100 µM (inactive) | 28 µM (inactive) | 76.9 µM (inactive) | > 100 µM (inactive) | > 100 µM (inactive) | 60.5 µM (inactive) | > 100 µM (inactive) | 92.7 µM (inactive)
COc1ccc2c(-c3csc(-c4c[nH]c5ccccc45)n3)c[nH]c2c1 | 4.98 µM (inactive) | 12.1 µM (inactive) | 4.36 µM (inactive) | 1.37 µM (inactive) | 16.8 µM (inactive) | 7.46 µM (inactive) | 2.75 µM (inactive) | 4.36 µM (inactive) | 4.04 µM (inactive) | 6.61 µM (inactive) | 7.8 µM (inactive) | 3.77 µM (inactive) | 7.18 µM (inactive) | 22 µM (inactive) | 6.92 µM (inactive) | 6.32 µM (inactive) | 9.2 µM (inactive) | 12.7 µM (inactive) | 7.76 µM (inactive) | 13.2 µM (inactive)
